The values below come from patent publication US20250019382A1, “NOVEL INHIBITORS OF CYCLIN-DEPENDENT KINASES” (Origenis Gmbh, priority 2021, published 2025).

Structures are written as SMILES. Some results are limits rather than exact numbers.

For one assay, the target named is T1, CDK2/cyclin E1 (Homo sapiens, UniProt P24941).
T1 construct: purchased Invitrogen Ltd., Paisley, UK (SelectScreen service)
Nature of the assay: CDK2/cyclin E1 LanthaScreen (SelectScreen). It counts as binding. The settings on record: duplicate, averaged. How it is done:
(§1) The CDK2 inhibitory activity of the compounds of the invention was measured in combination with different […] and assay systems. The SelectScreen™ assessment of the kinase inhibitory activity of CDK2 data point was performed in duplicate and averaged data is reported here. The SelectScreen™ kinase inhibitor assay service was used (Invitrogen Ltd., Paisley, UK) to investigate the ability of the compounds of the invention to inhibit CDK2 in dose dependent manner using ten inhibitor concentrations from 10 micromolar down to […] in half-logarithmic steps. The inhibitor concentration was plotted against the percent inhibition or displacement to determine the IC50 using XLFit 5.5 (IDBS, Guildford) to fit to a sigmoidal dose response curve with a variable slope.
On the technique in general: In TR-FRET formats the signal depends on donor and acceptor labels being close together.

A further assay has as its target T2, CDK2/cyclin A (Homo sapiens, UniProt P24941).
T2 construct: purchased Invitrogen Ltd., Paisley, UK (SelectScreen service)
The assay is described as follows: CDK2/cyclin A Z'-LYTE (SelectScreen). The settings on record: duplicate, averaged. The format is biochemical. How it is done:
as §1

Assay [1] has as its target T3, CDK2/cyclin A1 (Homo sapiens, UniProt P24941).
T3 construct: purchased Invitrogen Ltd., Paisley, UK (SelectScreen service)
Nature of the assay: CDK2/cyclin A1 LanthaScreen (SelectScreen). It counts as binding. To be noted: first list; duplicate, averaged. The method, then:
as §1

Another assay addresses T4, CDK9/CyclinT1 (Homo sapiens, UniProt P50750).
T4 construct: purchased ProQinase/Reaction Biology, USA #0371-0345-1
The assay is described as follows: CDK9/T1 ADPGlo kinase assay. It counts as biochemical. The settings on record: CDK9/CyclinT1 6 nM, ATP 10 microM, PDKtide 40 microM, 120 min RT. The procedure, abridged: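 Human CDK9/CyclinT1 (6 nM final) was preincubated 10 min with compound (12-point 1:3 series from 5 μM), then reacted 120 min at RT with PDKtide (40 μM final) and ATP (10 μM final). ADP was read by ADP-Glo luminescence; IC50 from variable-slope sigmoidal fit.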
For orientation: In ADP-Glo the light output rises with the ADP produced.

Assay [2] deals with T3, CDK2/cyclin A1. Nature of the assay: CDK2/cyclin A1 LanthaScreen (SelectScreen), second list. The format is binding. The settings on record: second list under the same heading; duplicate, averaged. The method, then: as §1

T4 sequence (P50750 whole entry): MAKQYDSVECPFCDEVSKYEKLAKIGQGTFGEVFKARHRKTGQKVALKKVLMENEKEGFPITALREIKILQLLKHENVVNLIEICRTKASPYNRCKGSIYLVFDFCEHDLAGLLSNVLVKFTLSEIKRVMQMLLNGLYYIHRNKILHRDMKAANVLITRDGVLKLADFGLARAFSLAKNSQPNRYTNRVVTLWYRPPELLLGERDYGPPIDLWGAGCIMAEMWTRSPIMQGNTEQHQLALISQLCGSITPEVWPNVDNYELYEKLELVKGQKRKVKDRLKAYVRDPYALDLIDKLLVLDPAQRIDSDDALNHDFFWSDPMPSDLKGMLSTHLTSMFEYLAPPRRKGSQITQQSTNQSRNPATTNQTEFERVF
T4 sequence (O60563 whole entry partner): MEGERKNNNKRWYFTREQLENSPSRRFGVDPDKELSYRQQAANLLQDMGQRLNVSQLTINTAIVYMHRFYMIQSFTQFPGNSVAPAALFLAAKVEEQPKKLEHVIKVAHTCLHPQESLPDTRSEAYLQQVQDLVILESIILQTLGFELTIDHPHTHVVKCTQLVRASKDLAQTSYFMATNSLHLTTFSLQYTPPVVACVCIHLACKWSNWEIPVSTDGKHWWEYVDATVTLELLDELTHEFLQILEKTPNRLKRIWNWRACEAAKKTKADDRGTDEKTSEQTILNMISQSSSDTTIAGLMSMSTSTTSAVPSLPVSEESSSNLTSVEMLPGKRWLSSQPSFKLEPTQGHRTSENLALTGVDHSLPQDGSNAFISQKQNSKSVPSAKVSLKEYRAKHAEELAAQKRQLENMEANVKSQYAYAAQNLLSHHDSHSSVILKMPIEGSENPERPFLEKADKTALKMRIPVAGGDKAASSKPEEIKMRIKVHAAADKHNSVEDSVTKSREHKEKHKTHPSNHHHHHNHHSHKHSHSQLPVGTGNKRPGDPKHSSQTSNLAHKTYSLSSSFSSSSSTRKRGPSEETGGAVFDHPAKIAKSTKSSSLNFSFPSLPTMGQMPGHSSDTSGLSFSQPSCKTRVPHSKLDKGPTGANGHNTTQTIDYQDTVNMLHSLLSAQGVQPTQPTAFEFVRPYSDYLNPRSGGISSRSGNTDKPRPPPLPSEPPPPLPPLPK

Usually IC50 stands for the midpoint of a concentration-inhibition curve. On to `Fc1cccc(F)c1-c1nc(N[C@H]2CC[C@H](N3CCOCC3)CC2)n2ncc(Cl)c2n1` [Example #89, 8-chloro-2-(2,6-difluorophenyl)-N-((1r,4r)-4-morpholinocyclohexyl)pyrazolo[1,5-a][1,3,5]triazin-4-amine], for which the IC50 at CDK2/cyclin E1 is below 200 nM; on CDK2/cyclin A, below 1000 nM; on CDK2/cyclin A1 [1], below 1000 nM; against CDK9/CyclinT1, below 20 nM; at CDK2/cyclin A1 [2] it was below 200 nM.
For the compound `N[C@H]1CC[C@H](Nc2nc(-c3c(F)cccc3F)nc3c(Cl)cnn23)CC1` [Example #108, (1r,4r)-N1-(8-chloro-2-(2,6-difluorophenyl)pyrazolo[1,5-a][1,3,5]triazin-4-yl)cyclohexane-1,4-diamine], the half-inhibitory concentration (IC50) was below 200 nM on CDK2/cyclin E1; below 200 nM at CDK2/cyclin A; below 200 nM on CDK2/cyclin A1 [1]; below 20 nM on CDK9/CyclinT1; below 20 nM at CDK2/cyclin A1 [2].
On to `CN(C)[C@H]1CC[C@H](Nc2nc(-c3c(F)cccc3F)nc3c(Cl)cnn23)CC1` [Example #109, (1r,4r)-N1-(8-chloro-2-(2,6-difluorophenyl)pyrazolo[1,5-a][1,3,5]triazin-4-yl)-N4,N4-dimethylcyclohexane-1,4-diamine], for which the IC50 on CDK2/cyclin E1 was below 200 nM; on CDK2/cyclin A, below 1000 nM; on CDK2/cyclin A1 [1] it was below 1000 nM; against CDK9/CyclinT1, below 20 nM; on CDK2/cyclin A1 [2], below 200 nM.
As to `Fc1cccc(F)c1-c1nc(N[C@H]2CC[C@H](N3CCCCC3)CC2)n2ncc(Cl)c2n1` [Example #110, 8-chloro-2-(2,6-difluorophenyl)-N-((1r,4r)-4-(piperidin-1-yl)cyclohexyl)pyrazolo[1,5-a][1,3,5]triazin-4-amine], the IC50 on CDK2/cyclin E1 is below 200 nM; at CDK2/cyclin A it was below 1000 nM; at CDK2/cyclin A1 [1] it was below 200 nM; against CDK9/CyclinT1 it was below 20 nM; on CDK2/cyclin A1 [2], below 200 nM.
As for `COCCNC1CCC(Nc2nc(-c3c(F)cccc3F)nc3c(Cl)cnn23)CC1` (stereo not shown) [Example #124, (1r,4r)-N1-(8-chloro-2-(2,6-difluorophenyl)pyrazolo[1,5-a][1,3,5]triazin-4-yl)-N4-(2-methoxyethyl)cyclohexane-1,4-diamine], the IC50 was below 200 nM on CDK2/cyclin E1; below 1000 nM at CDK2/cyclin A; below 1000 nM at CDK2/cyclin A1 [1]; below 200 nM against CDK9/CyclinT1; below 200 nM on CDK2/cyclin A1 [2].
For `FCCN[C@H]1CC[C@H](Nc2nc(-c3c(F)cccc3F)nc3c(Cl)cnn23)CC1` [Example #126, (1r,4r)-N1-(8-chloro-2-(2,6-difluorophenyl)pyrazolo[1,5-a][1,3,5]triazin-4-yl)-N4-(2-fluoroethyl)cyclohexane-1,4-diamine], the half-inhibitory concentration (IC50) was below 200 nM at CDK2/cyclin E1; below 200 nM on CDK2/cyclin A; below 200 nM at CDK2/cyclin A1 [1]; below 20 nM against CDK9/CyclinT1; below 200 nM on CDK2/cyclin A1 [2].
In the case of `FCCCN[C@H]1CC[C@H](Nc2nc(-c3c(F)cccc3F)nc3c(Cl)cnn23)CC1` [Example #128, (1r,4r)-N1-(8-chloro-2-(2,6-difluorophenyl)pyrazolo[1,5-a][1,3,5]triazin-4-yl)-N4-(3-fluoropropyl)cyclohexane-1,4-diamine], the concentration for half-maximal inhibition (IC50) at CDK2/cyclin E1 was below 200 nM; at CDK2/cyclin A it was below 1000 nM; on CDK2/cyclin A1 [1], below 200 nM; against CDK9/CyclinT1 it was below 20 nM; on CDK2/cyclin A1 [2] it was below 200 nM.
Take `Cc1cc(C)c(CNc2nc(-c3c(F)cccc3F)nc3c(Cl)cnn23)cn1` [Example #145, 8-chloro-2-(2,6-difluorophenyl)-N-((4,6-dimethylpyridin-3-yl)methyl)pyrazolo[1,5-a][1,3,5]triazin-4-amine]: at CDK9/CyclinT1, the half-inhibitory concentration (IC50) is below 20 nM.
On CDK9/CyclinT1, `Fc1cccc(F)c1-c1nc(NCc2cccnc2)n2ncc(Cl)c2n1` [Example #146, 8-chloro-2-(2,6-difluorophenyl)-N-(pyridin-3-ylmethyl)pyrazolo[1,5-a][1,3,5]triazin-4-amine] registered an IC50 below 20 nM.
